Results published in patent US20250171457A1, “NITROGEN-CONTAINING HETEROCYCLIC COMPOUND HAVING NRF2 ACTIVATION EFFECT” (CHUGAI SEIYAKU KABUSHIKI KAISHA, priority 2022, published 2025).

Tested on: Nrf2 transcriptional activity (pARE-Luc reporter) in HepG2 cells
Assay: In vitro Nrf2 transcriptional activity measurement by ARE-dependent reporter assay in HepG2 cell
Format: cell-based, human
Conditions: Homo sapiens; HepG2 cells transfected with pARE-Luc, 4 hours at 37° C.; luciferase activity of Example 1-54 or Example 17-23 at 3.75 μM defined as 100%
How it was run: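 HepG2 cells transfected with pGL4.37 (pARE-Luc), replated onto compound and incubated 4 h at 37° C; luciferase read by Bright-Glo luminescence. Response normalized to 100% set by a reference compound at 3.75 μM; EC50 from dose-response curve.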

Q: For `CC[C@@H](c1cccc2c1CCN(C(=O)c1c(Br)cc(-c3cnn(C)c3)cc1Br)C2)[C@H](C)C(=O)O` [Compound 17-10, (2S,3R)-3-[2-[2,6-Dibromo-4-(1-methylpyrazol-4-yl)benzoyl]-3,4-dihydro-1H-isoquinolin-5-yl]-2-methylpentanoic acid], which EC50 is on record?
A: The EC50 was 21 nM.

Q: Which EC50 does the source give for `CC(C)N1CCN(c2cc(Cl)c(C(=O)N3Cc4cccc(-c5ccc(C(=O)O)c(N6CCOCC6)c5)c4C(=O)N3)c(Cl)c2)CC1` [Compound 1-76, 4-[2-[2,6-Dichloro-4-(4-propan-2-ylpiperazin-1-yl)benzoyl]-4-oxo-1,3-dihydrophthalazin-5-yl]-2-morpholin-4-ylbenzoic acid] here?
A: The EC50 was 5.3 nM.

Q: For `O=C(O)c1cc(F)c(-c2cccc3c2OCN(C(=O)c2c(Cl)cc(OCCCN4CCOCC4)cc2Cl)C3)cc1N1CCOCC1` [Compound 4-49, 4-[3-[2,6-Dichloro-4-(3-morpholin-4-ylpropoxy)benzoyl]-2,4-dihydro-1,3-benzoxazin-8-yl]-5-fluoro-2-morpholin-4-ylbenzoic acid], which EC50 is on record?
A: The EC50 was 1.2 nM.

Q: For `O=C(O)c1cc(F)c(-c2cccc3c2OCN(C(=O)c2c(Cl)cc(N4C5CC4CN(C4CC(F)(F)C4)C5)cc2Cl)C3)cc1N1C2CCC1COC2` [Compound 9-21, 4-[3-[2,6-Dichloro-4-[3-(3,3-difluorocyclobutyl)-3,6-diazabicyclo[3.1.1]heptan-6-yl]benzoyl]-2,4-dihydro-1,3-benzoxazin-8-yl]-5-fluoro-2-(3-oxa-8-azabicyclo[3.2.1]octan-8-yl)benzoic acid], which EC50 is on record?
A: Its EC50 is 6 nM.

Q: `CN1CC[C@@H](Oc2cc(Cl)c(C(=O)N3COc4c(cccc4-c4cc(N5CCOCC5)c(C(=O)O)cc4F)C3)c(Cl)c2)C1` [Compound 4-50, 4-[3-[2,6-Dichloro-4-[(3R)-1-methylpyrrolidin-3-yl]oxybenzoyl]-2,4-dihydro-1,3-benzoxazin-8-yl]-5-fluoro-2-morpholin-4-ylbenzoic acid] was tested. Which EC50 did it give?
A: Its EC50 is 2.8 nM.

Q: `Cn1cc(-c2cc(Cl)c(C(=O)N3Cc4cccc(-c5cc(N6CCOCC6)c(C(=O)O)cc5F)c4NC3=O)c(Cl)c2)cn1` [Compound 18-9, 4-[3-[2,6-Dichloro-4-(1-methylpyrazol-4-yl)benzoyl]-2-oxo-1,4-dihydroquinazolin-8-yl]-5-fluoro-2-morpholin-4-ylbenzoic acid] was tested. Which EC50 did it give?
A: The EC50 was 23 nM.

Q: For `C[C@@H]1CN(c2cc(Cl)c(C(=O)N3COc4c(cccc4-c4cc(N5C6CCC5COC6)c(C(=O)O)cc4F)C3)c(Cl)c2)[C@H](C)CN1C` [Compound 9-9, 4-[3-[2,6-Dichloro-4-[(2R,5R)-2,4,5-trimethylpiperazin-1-yl]benzoyl]-2,4-dihydro-1,3-benzoxazin-8-yl]-5-fluoro-2-(3-oxa-8-azabicyclo[3.2.1]octan-8-yl)benzoic acid], which EC50 is on record?
A: The EC50 was 1.5 nM.

Q: How did the EC50 turn out when `O=C(O)c1cc(F)c(-c2cccc3c2OCN(C(=O)c2c(Cl)cc(-c4cnc5n4CCC5)cc2Cl)C3)cc1N1C2CCC1COC2` [Compound 3-22, 4-[3-[2,6-Dichloro-4-(6,7-dihydro-5H-pyrrolo[1,2-a]imidazol-3-yl)benzoyl]-2,4-dihydro-1,3-benzoxazin-8-yl]-5-fluoro-2-(3-oxa-8-azabicyclo[3.2.1]octan-8-yl)benzoic acid] was run?
A: The EC50 was 21 nM.

Q: `O=C(O)c1cc(F)c(-c2cccc3c2OCN(C(=O)c2c(Cl)cc(OC[C@@H]4COCCO4)cc2Cl)C3)cc1N1C2CCC1COC2` [Compound 4-42, 4-[3-[2,6-Dichloro-4-[[(2S)-1,4-dioxan-2-yl]methoxy]benzoyl]-2,4-dihydro-1,3-benzoxazin-8-yl]-5-fluoro-2-(3-oxa-8-azabicyclo[3.2.1]octan-8-yl)benzoic acid] was tested. Which EC50 did it give?
A: Its EC50 is 4.4 nM.

Q: `Cc1cc(-c2cccc3c2OCN(C(=O)c2c(Cl)cc(-c4cnn(C)c4)cc2Cl)C3)cc(N2CCOCC2)c1C(=O)O` [Compound 13-20, 4-[3-[2,6-Dichloro-4-(1-methylpyrazol-4-yl)benzoyl]-2,4-dihydro-1,3-benzoxazin-8-yl]-2-methyl-6-morpholin-4-ylbenzoic acid] was tested. Which EC50 did it give?
A: The EC50 was 7.2 nM.
